Measurements published in patent US11896649B2, “Methods and pharmaceutical compositions for the treatment of post-operative cognitive dysfunction” (INSERM (INSTITUT NATIONAL DE LA SANTE ET DE LA RECHERCHE …, priority 2016, dated 2024).

What was measured:
fractured mice [1] = conditions: 20 month old mice, i.p. apelin 0.5 nmol/kg before and during 3 days after the fracture, tested after 3 days; FIG. 4
Experimental: FIG. 4: Percentage of freezing in aged mice. Twenty month old male C57B16/j mice were fractured with (fracture apelin) or without (fracture PBS) an i.p treatment of apelin (0.5 nmol/kg) before and during 3 days after the fracture. After 3 days, animal hippocampal memory was tested by fear conditioning test. N=6 to 10, *p<0.05 compared to control.
To test the long-term memory and learning abilities, a fitness test to fear (Fear Conditioning Test) was used.
During the learning session, this test combines a painful and anxiety-producing event (2 short electrical discharges 0.3 mA 2 s on the legs) in an environmental context (floor cage with metal grills, washed several times a day with an alcoholic solution), visual (compound walls of black and white stripes, and white light patterns on the walls of the room) and sound (each discharge is preceded by a 80 dB sound 20 seconds). The learning phase lasted 4 minutes 25 seconds.
In the context of test sessions, conducted in the 3rd postoperative day, the animal was reintroduced in the same cage for 4 minutes. The context was the same but without sound stimulation or pain stimulus. […] Operator who ignored the treatment received by each animal evaluated the freezing time of each animal. […]

IL-6 mRNA = conditions: fractured mice, tissues collected 72 hours after fracture; FIG. 3b
Experimental: (§1) All mice were anaesthetized with 2-3% sevoflurane. Adequate anesthesia was ascertained by an absent pedal withdrawal reflex after hard pinching of the toe. Closed tibial fracture was performed as previously described (Minville et al 2008). Briefly, after antiseptic preparation of the right paw with povidone-iodine, a unilateral closed fracture was produced in the right tibia using a specially designed fracture apparatus (blunt guillotine). For the intramedullary pinning using a sterile technique, a hole was made above the tibial tuberosity per-cutaneously using a 27 G needle (BD Microlance—27G ¾L 19 mm). Then, the needle was directed straight into the medullary canal. By rotating the needle, the canal was reamed to 5 mm up to the ankle joint. The end of the needle was cut as short as possible so that the skin could roll over and covers it. No suture was performed. The mouse was then placed with the leg on the anvil in order to line up the blunt guillotine with the proximal third of the tibia. A 300 g weight was decreased from a height of 9 to 10 cm, fracturing the tibia shaft.
(§2) Apelin administration (ip, 0.5 umol/kg, Bachem) has been performed 1 hour before fracture and daily during the 15 consecutive days.

TNFa mRNA = conditions: fractured mice, tissues collected 72 hours after fracture; FIG. 3a
Experimental: as §1, §2

fractured mice [2] = tested on: fractured mice
Experimental: as §1, §2

apelin
Hippocampal memory (percentage of freezing) in aged mice after fracture (fractured mice [1]): do not exhibit hippocampal memory failure | Hippocampus IL-6 mRNA expression (IL-6 mRNA): avoid IL-6 increase | Hematoma TNFa mRNA expression (TNFa mRNA): strong decreased | Pain and nociception measured by Von Frey technique (fractured mice [2]; apelin ip 0.5 umol/kg 1 hour before fracture and daily, tested at day 1, 5 and 15 after fracture, FIG. 1a): significantly decreased | Pain and nociception measured by Hargreave's technique (fractured mice [2]; apelin ip 0.5 umol/kg 1 hour before fracture and daily, tested at day 1, 5 and 15 after fracture, FIG. 1b): significantly decreased | Freezing rate in non-operated mice (fractured mice [2]; non-operated mice treated by apelin, FIG. 2): did not display change | Freezing rate in operated mice, compared to operated mice receiving saline injections (fractured mice [2]; operated mice, daily injection of apelin, day 3 after fracture, FIG. 2): increased
